Earlier results in patent publication US12678402B2 (Nasus Pharma Ltd., priority 2020, dated 2026).
Like-named read-outs stand apart in the source and are kept apart here.

Experiments:
[1] = IN 1 mg up to 12 mg, different indications and formulations
[2] = test system: nasal epithelia; conditions: in vitro; dissolves in nasal fluid

Cbaseline Mean (±SD) (0.3 mg IM): 35 ± 23 pg/mL | Tmax (0.3 mg IM): 1.12 ± 0.717 h | Cbaseline Mean (±SD) (5 mg IN): 8 ± 6 pg/mL
SMILES: CNC[C@H](O)c1ccc(O)c(O)c1 [Epinephrine]
adverse events observed (IN epinephrine in saline formulation, healthy adults): transient tremor was observed in one subject and palpitation in two subjects | heart rate and blood pressure changes (IN epinephrine in saline formulation, healthy adults, at Tmax): Increase in heart rate, and diastolic and systolic blood pressures occurred at Tmax. in most subjects | serious adverse effects (after IN epinephrine administration, healthy adults): No serious adverse effects were observed | serious adverse events [1]: no serious adverse events | absorption after deposition of the powder in the nasal cavity [2]: rapidly absorbed through the nasal epithelia
